According to ChEMBL document CHEMBL4138123, “Design, synthesis and biological evaluation of novel pyrazolochalcones as potential modulators of PI3K/Akt/mTOR pathway and inducers of apoptosis in breast cancer cells” (Eur J Med Chem, 2017):

Tests used:
Format in all cases: functional
[1] = system: M14; test: Cytotoxicity against human M14 cells assessed as growth inhibition after 48 hrs by sulforhodamine B assay; settings: M14, 48 h
[2] = system: PC-3; test: Cytotoxicity against human PC3 cells assessed as cell growth at 100 uM after 48 hrs by sulforhodamine B assay relative to control; settings: PC-3, 48 h, read-out: Activity
[3] = system: 786-0; test: Cytotoxicity against human 786-0 cells assessed as cell growth at 0.1 uM after 48 hrs by sulforhodamine B assay relative to control; settings: 786-0, 48 h, read-out: Activity
[4] = system: A498; test: Cytotoxicity against human A498 cells assessed as cell growth at 1 uM after 48 hrs by sulforhodamine B assay relative to control; settings: A498, 48 h, read-out: Activity
[5] = system: SK-MEL-5; test: Cytotoxicity against human SK-MEL-5 cells assessed as cell growth at 1 uM after 48 hrs by sulforhodamine B assay relative to control; settings: SK-MEL-5, 48 h, read-out: Activity
[6] = system: A549; test: Cytotoxicity against human A549/ATCC cells assessed as cell growth at 0.01 uM after 48 hrs by sulforhodamine B assay relative to control; settings: A549, 48 h, read-out: Activity
[7] = system: Malme-3M; test: Cytotoxicity against human MALME-3M cells assessed as cell growth at 10 uM after 48 hrs by sulforhodamine B assay relative to control; settings: read-out: Activity
[8] = system: SK-MEL-28; test: Cytotoxicity against human SK-MEL-28 cells assessed as cell growth at 1 uM after 48 hrs by sulforhodamine B assay relative to control; settings: SK-MEL-28, 48 h, read-out: Activity
[9] = system: KM12; test: Cytotoxicity against human KM12 cells assessed as growth inhibition after 48 hrs by sulforhodamine B assay; settings: KM12, 48 h
[10] = system: CCRF-CEM; test: Cytotoxicity against human CCRF-CEM cells assessed as cell growth at 10 uM after 48 hrs by sulforhodamine B assay relative to control; settings: read-out: Activity
[11] = system: NCI-H522; test: Cytotoxicity against human NCI-H522 cells assessed as cell growth at 10 uM after 48 hrs by sulforhodamine B assay relative to control; settings: NCI-H522, 48 h, read-out: Activity
[12] = system: NCI-H522; test: Cytotoxicity against human NCI-H522 cells assessed as cell growth at 0.1 uM after 48 hrs by sulforhodamine B assay relative to control; settings: NCI-H522, 48 h, read-out: Activity
[13] = system: ACHN; test: Cytotoxicity against human ACHN cells assessed as cell growth at 0.1 uM after 48 hrs by sulforhodamine B assay relative to control; settings: read-out: Activity
[14] = system: HL-60(TB); test: Cytotoxicity against human HL-60(TB) cells assessed as growth inhibition after 48 hrs by sulforhodamine B assay; settings: HL-60, 48 h
[15] = system: TK-10; test: Cytotoxicity against human TK10 cells assessed as growth inhibition after 48 hrs by sulforhodamine B assay; settings: TK-10, 48 h
[16] = system: OVCAR-3; test: Cytotoxicity against human OVCAR3 cells assessed as growth inhibition after 48 hrs by sulforhodamine B assay; settings: OVCAR-3, 48 h
[17] = system: UO-31; test: Cytotoxicity against human UO31 cells assessed as cell growth at 100 uM after 48 hrs by sulforhodamine B assay relative to control; settings: UO-31, 48 h, read-out: Activity
[18] = system: NCI-H322M; test: Cytotoxicity against human NCI-H322M cells assessed as cell growth at 0.01 uM after 48 hrs by sulforhodamine B assay relative to control; settings: read-out: Activity
[19] = system: MDA-MB-435; test: Cytotoxicity against human MDA-MB-435 cells assessed as cell growth at 0.01 uM after 48 hrs by sulforhodamine B assay relative to control; settings: MDA-MB-435, 48 h, read-out: Activity
[20] = system: TK-10; test: Cytotoxicity against human TK10 cells assessed as cell growth at 0.01 uM after 48 hrs by sulforhodamine B assay relative to control; settings: TK-10, 48 h, read-out: Activity
[21] = system: A498; test: Cytotoxicity against human A498 cells assessed as cell growth at 0.01 uM after 48 hrs by sulforhodamine B assay relative to control; settings: A498, 48 h, read-out: Activity
[22] = system: HCT-15; test: Cytotoxicity against human HCT15 cells assessed as cell growth at 0.1 uM after 48 hrs by sulforhodamine B assay relative to control; settings: HCT-15, 48 h, read-out: Activity
[23] = system: NCI-H226; test: Cytotoxicity against human NCI-H226 cells assessed as cell growth at 0.1 uM after 48 hrs by sulforhodamine B assay relative to control; settings: NCI-H226, 48 h, read-out: Activity
[24] = system: SF-539; test: Cytotoxicity against human SF539 cells assessed as growth inhibition after 48 hrs by sulforhodamine B assay; settings: SF-539, 48 h
[25] = system: NCI-H226; test: Cytotoxicity against human NCI-H226 cells assessed as cell growth at 10 uM after 48 hrs by sulforhodamine B assay relative to control; settings: NCI-H226, 48 h, read-out: Activity
[26] = system: NCI-H460; test: Cytotoxicity against human NCI-H460 cells assessed as cell growth at 1 uM after 48 hrs by sulforhodamine B assay relative to control; settings: NCI-H460, 48 h, read-out: Activity
[27] = system: MDA-MB-435; test: Cytotoxicity against human MDA-MB-435 cells assessed as cell growth at 1 uM after 48 hrs by sulforhodamine B assay relative to control; settings: MDA-MB-435, 48 h, read-out: Activity
[28] = system: K562; test: Cytotoxicity against human K562 cells assessed as cell growth at 0.01 uM after 48 hrs by sulforhodamine B assay relative to control; settings: K562, 48 h, read-out: Activity
[29] = system: UACC-257; test: Cytotoxicity against human UACC257 cells assessed as cell growth at 0.1 uM after 48 hrs by sulforhodamine B assay relative to control; settings: UACC-257, 48 h, read-out: Activity
[30] = system: SF-268; test: Cytotoxicity against human SF268 cells assessed as cell growth at 0.01 uM after 48 hrs by sulforhodamine B assay relative to control; settings: SF-268, 48 h, read-out: Activity
[31] = system: T47D; test: Cytotoxicity against human T47D cells assessed as cell growth at 0.01 uM after 48 hrs by sulforhodamine B assay relative to control; settings: read-out: Activity
[32] = system: UACC-62; test: Cytotoxicity against human UACC62 cells assessed as growth inhibition after 48 hrs by sulforhodamine B assay; settings: UACC-62, 48 h
[33] = system: OVCAR-8; test: Cytotoxicity against human OVCAR8 cells assessed as cell growth at 0.01 uM after 48 hrs by sulforhodamine B assay relative to control; settings: OVCAR-8, 48 h, read-out: Activity
[34] = system: NCI-H226; test: Cytotoxicity against human NCI-H226 cells assessed as cell growth at 100 uM after 48 hrs by sulforhodamine B assay relative to control; settings: NCI-H226, 48 h, read-out: Activity
[35] = system: DU-145; test: Cytotoxicity against human DU145 cells assessed as cell growth at 0.01 uM after 48 hrs by sulforhodamine B assay relative to control; settings: DU-145, 48 h, read-out: Activity

`COc1ccc(C(=O)/C=C/c2cc(-c3cc(OC)c(OC)c(OC)c3)n[nH]2)cc1` was tested, and the LC50 (concentration killing 50% of cells) [1] was greater than 100 µM, the TGI [1] was 4.93 µM and the growth at 100 µM [2] was 1%. For the same compound, the growth at 0.1 µM [3] was 96%, the growth at 1 µM [4] was 84% and the growth at 1 µM [5] was 93%. It also gave a growth at 0.01 µM [6] of 98%, a growth at 10 µM [7] of -66% and a growth at 1 µM [8] of 101%. The LC50 [9] was 6.02 µM, the TGI [9] was 3.06 µM and the growth at 10 µM [10] was -19%. The growth at 10 µM [11] was -73%, the growth at 0.1 µM [12] was 87% and the growth at 0.1 µM [13] was 102%. For the same compound, the LC50 [14] was greater than 100 µM, the TGI [14] was 4.78 µM and the LC50 [15] was greater than 100 µM. The TGI [15] was 5.77 µM, the LC50 [16] was 7.27 µM and the TGI [16] was 3.56 µM. For the same compound, the growth at 100 µM [17] was -79%, the growth at 0.01 µM [18] was 92% and the growth at 0.01 µM [19] was 99%. The growth at 0.01 µM [20] was 89%, the growth at 0.01 µM [21] was 98% and the growth at 0.1 µM [22] was 100%. For the same compound, the growth at 0.1 µM [23] was 102%, the GI50 [24] was 1.62 µM and the LC50 (concentration killing 50% of cells) [24] was 5.85 µM. It also gave a TGI [24] of 3.08 µM, a growth at 10 µM [25] of -59% and a growth at 1 µM [26] of 85%. The growth at 1 µM [27] was 92%, the growth at 0.01 µM [28] was 97% and the growth at 0.1 µM [29] was 97%. For the same compound, the growth at 0.01 µM [30] was 91%, the growth at 0.01 µM [31] was 96% and the TGI [32] was 3.65 µM. It also gave a growth at 0.01 µM [33] of 95%, a growth at 100 µM [34] of -35% and a growth at 0.01 µM [35] of 102%.
Compound `COc1ccc(C(=O)/C=C/c2cc(-c3ccc(OC)c(OC)c3)n[nH]2)cc1OC` has a GI50 [1] of 1.91 µM, a TGI [1] of 4.11 µM and a growth at 100 µM [2] of -4%. It also gave a growth at 0.1 µM [3] of 96%, a growth at 1 µM [4] of 63% and a growth at 1 µM [5] of 86%. For the same compound, the growth at 0.01 µM [6] was 97%, the growth at 10 µM [7] was -27% and the growth at 1 µM [8] was 81%. It also gave a GI50 [9] of 0.625 µM, a TGI [9] of 2.08 µM and a growth at 10 µM [10] of -5%. The growth at 10 µM [11] was -56%, the growth at 0.1 µM [12] was 94% and the growth at 0.1 µM [13] was 96%. The GI50 [14] was 2.76 µM, the TGI [14] was greater than 100 µM and the GI50 [15] was 4.96 µM. For the same compound, the TGI [15] was 47.7 µM, the GI50 [16] was 1.96 µM and the TGI [16] was 4.72 µM. For the same compound, the growth at 100 µM [17] was -68%, the growth at 0.01 µM [18] was 104% and the growth at 0.01 µM [19] was 89%. It also gave a growth at 0.01 µM [20] of 98%, a growth at 0.01 µM [21] of 82% and a growth at 0.1 µM [22] of 95%. For the same compound, the growth at 0.1 µM [23] was 88%, the GI50 [24] was 0.525 µM and the TGI [24] was 2.54 µM. The growth at 10 µM [25] was -46%, the growth at 1 µM [26] was 36% and the growth at 1 µM [27] was 87%. For the same compound, the growth at 0.01 µM [28] was 101%, the growth at 0.1 µM [29] was 94% and the growth at 0.01 µM [30] was 96%. It also gave a growth at 0.01 µM [31] of 82%, a GI50 [32] of 1.86 µM and a TGI [32] of 4.08 µM. For the same compound, the growth at 0.01 µM [33] was 99%, the growth at 100 µM [34] was -5% and the growth at 0.01 µM [35] was 106%.
